From patent US20210063420A1, “Human Neural Organoid Platform for Detecting Drugs of Abuse Disorder Susceptibility and Therapeutic Countermeasure and Non-Addictive Pain Medication Development” (Rene Anand, priority 2019, published 2021)

System: human iPSC-derived brain organoids
Procedure: All cpm data are normalized data and the reads are a direct representation of the abundance of the RNA for each gene.
Transcriptomic data from these neural organoids were obtained. […] Detailed data analysis using Gene Card and Pubmed data bases were performed.

CN1CCCC1c1cccnc1 (stereo not drawn) [nicotine]
expression of a set of genes for proteins involved in the development of midbrain dopaminergic neurons (VTA and SNpc) (chronic nicotine exposure of human iPSC-derived brain organoids): increases the expression
change in gene expression versus 0 (control) (exposure for 4 weeks to nicotine at 50 nanomolar, 500 nanomolar and 1 micromolar in the growth media, identified responsive genes): greater than 1.4 fold
expression of a subset of genes (Nurr 1, Lmx1a, Lmx1b, Neurog2, OTX2, Nolz1, NDNF) (human neural organoids, preliminary data): upregulated
